Test [1] has as its target T1, EcR polypeptide subunit of the D. melanogaster ecdysone receptor (Drosophila melanogaster, UniProt P34021).
T1 construct: expressed in transfected cells; host or cells: CHO cells
T1 sequence (P34021 1-878): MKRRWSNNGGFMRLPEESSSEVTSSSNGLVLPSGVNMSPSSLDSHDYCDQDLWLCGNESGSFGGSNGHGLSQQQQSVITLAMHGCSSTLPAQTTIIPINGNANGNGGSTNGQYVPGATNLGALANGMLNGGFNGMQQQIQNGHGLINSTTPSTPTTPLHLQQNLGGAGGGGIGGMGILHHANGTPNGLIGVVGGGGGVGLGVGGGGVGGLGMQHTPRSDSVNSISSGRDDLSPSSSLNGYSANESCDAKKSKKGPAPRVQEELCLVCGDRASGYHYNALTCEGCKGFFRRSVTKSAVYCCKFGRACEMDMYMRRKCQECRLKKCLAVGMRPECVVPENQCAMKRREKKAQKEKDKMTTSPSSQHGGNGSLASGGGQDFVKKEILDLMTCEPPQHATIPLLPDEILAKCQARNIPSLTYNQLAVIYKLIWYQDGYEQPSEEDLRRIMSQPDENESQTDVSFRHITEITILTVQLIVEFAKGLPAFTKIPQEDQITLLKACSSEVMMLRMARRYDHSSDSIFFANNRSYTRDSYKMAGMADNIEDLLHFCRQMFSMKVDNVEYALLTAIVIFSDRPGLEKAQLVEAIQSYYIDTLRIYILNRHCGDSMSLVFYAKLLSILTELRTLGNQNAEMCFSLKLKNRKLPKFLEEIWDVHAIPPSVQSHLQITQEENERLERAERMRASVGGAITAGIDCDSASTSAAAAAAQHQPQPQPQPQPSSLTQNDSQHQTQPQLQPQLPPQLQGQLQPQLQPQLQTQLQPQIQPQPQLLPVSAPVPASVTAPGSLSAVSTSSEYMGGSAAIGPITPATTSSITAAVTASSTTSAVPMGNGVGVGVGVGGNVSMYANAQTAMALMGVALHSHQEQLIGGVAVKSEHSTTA
Kind of test: CHO cell co-transfection CAT reporter assay, pSV40-EcR with p(EcRE)7-CAT. The conditions noted are these: for Fold-induction of expression: 30° C., PNA 20 μM, CHO cells. Format: cell-based. The procedure:
Chinese hamster ovary (CHO) cells were maintained in 50% (v/v) Dubbecco's modified Eagle's medium (DMEM) and 50% (v/v) Hamm F12 nutrient mixture (GIBCO) supplemented with 10% (v/v) foetal bovine serum. Transfection was carried out by the DNA-calcium phosphate co-precipitation method (Ausubel et al, 1992). One day before transfection with the plasmids described in Examples 1 and/or 2, or other expression plasmids, CHO cells were plated out at 5-8×10^5 cells per 6 cm diameter culture dish in the above DMEM/F12 medium. Three hours before the addition of the DNA-calcium phosphate co-precipitate, the cells were washed with phosphate buffered saline (PBS; Sambrook et al., 1989) and cultured in fresh DMEM plus 10% (v/v) foetal bovine serum. The cells were incubated in the presence of the co-precipitate for eighteen hours before excess DNA was removed by washing with PBS. The cells were then cultured for another day in DMEM/F12 supplemented with 10% (v/v) foetal bovine serum with or without added ponasterone A (PNA), before harvesting. Cells were washed with PBS, harvested by mechanical scraping in 0.25 M Tris-HCl (pH 7.8), and disrupted by three freeze-thaw cycles.
All transfections included, in addition to expression and reporter plasmids, a β-galactosidase-expressing plasmid designated pPgK-LacZ (McBurney et al, 1991), which served as an internal control for the efficiency of transfection, and pUC18 DNA in an amount sufficient to produce 10 μg total DNA per culture dish.
The chloramphenicol acetyltransferase (CAT) and β-galactosidase activities encoded by the reporter genes present in the reporter plasmids were assayed as described in Sambrook et al, (1989).
To determine whether the D. melanogaster ecdysone receptor polypeptide is stable at physiological temperatures above about 30° C., CHO cells were transfected as described in Example 3, with the plasmid pSV40-EcR and the reporter plasmid p(EcRE)7-CAT in the presence of PNA, at 30° C. and 37° C.
Briefly, CHO cells were plated out at 37° C. sixteen to twenty hours before transfection. After washing away the DNA, the cells were cultured for two hours in fresh medium with or without hormone and the dishes divided into duplicate sets. One set was cultured for another day at 37° C. before harvesting for CAT and β-galactosidase assays. The other set was cultured for three days at 30° C. before assaying enzyme activities. Results indicated a reduction in the fold-induction of gene expression regulated by the D. melanogaster ecdysone receptor polypeptide at 37° C., compared to the fold-induction at 30° C., as shown in Table 1.
For orientation: A reporter such as luciferase makes a cellular process visible.

Test [2] addresses T2, linker and ligand-binding regions of the L. cuprina EcR polypeptide and partner protein (USP polypeptide) (Lucilia cuprina, UniProt O18531).
T2 construct: made in house; host or cells: recombinant baculovirus in insect Sf9 and Sf21 cells (extracts)
T2 sequence (O18531 366-757): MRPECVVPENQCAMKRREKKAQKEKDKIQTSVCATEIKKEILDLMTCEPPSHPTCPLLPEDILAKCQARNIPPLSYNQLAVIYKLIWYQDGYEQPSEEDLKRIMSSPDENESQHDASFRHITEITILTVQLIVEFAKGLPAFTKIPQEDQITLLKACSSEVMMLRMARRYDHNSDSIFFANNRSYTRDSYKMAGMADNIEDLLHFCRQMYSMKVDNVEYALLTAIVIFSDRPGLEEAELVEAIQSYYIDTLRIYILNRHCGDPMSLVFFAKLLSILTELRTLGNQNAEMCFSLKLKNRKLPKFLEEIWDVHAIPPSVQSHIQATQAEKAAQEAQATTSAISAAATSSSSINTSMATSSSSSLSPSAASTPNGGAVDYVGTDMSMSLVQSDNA
In words: [3H]ponasterone A binding assay in Sf9 and Sf21 cells infected by recombinant baculovirus (modified method of Yund et al). Conditions: compared to the ecdysone holoreceptor in L. cuprina embryos; no specific binding with control virus (FIG. 3).
From the text: Control cells contained baculovirus expressing β-galactosidase and CAT only.
The segment of pLcEcR.USP.DUAL which encodes the tagged linker and ligand-binding regions of the EcR polypeptide and partner protein (USP polypeptide) sequences, placed operably under the control of polyhedrin and p10 promoters, respectively, was recombined into a baculovirus genome, by employing the Tn7 transposition system (Luckow et al, (1993). The polypeptide products were then co-expressed in insect Sf21 and Sf9 cells, where they associated into a functional complex.

Molecules are shown by their SMILES. “And” between values parts separate entries of the source, which are not always exact repeats. Identical values can stand only once.

On to `CC(C)CC[C@@H](O)[C@](C)(O)[C@H]1CC[C@@]2(O)C3=CC(=O)[C@@H]4C[C@@H](O)[C@@H](O)C[C@]4(C)[C@H]3CC[C@]12C` [PNA, ponasterone A], for which the Fold-induction of expression is 39X and 25X in test [1] (pSV40-EcR 0.1 μg/dish); 26X and 33X in test [1] (pSV40-EcR 0.5 μg/dish); 35X and 54X in test [1] (pSV40-EcR 2.5 μg/dish). In addition, in test [1] (CHO cells co-transfected with p(EcRE)7-CAT and pSV40-EcR, in the presence of PNA), the “induction of CAT activity” value is listed as 50 units of activity. The “binding of labelled ligand in cells infected by the recombinant baculovirus” value in test [2] was “highly-significant increase in the binding”.

The record behind these values is patent US7312322B1, “Genetic sequences encoding steroid and juvenile hormone receptor polypeptides and insecticidal modalities therefor” (priority 1998, dated 2007).
